Assays:
[1] = biological target: T1, Kv2.1-K356C (Rattus norvegicus, UniProt P15387, K360C); test: Cysteine protection experiments, K356C variant of Kv2.1 in oocytes; format: cell-based
T1 construct: expressed in transfected cells; host or cells: Xenopus laevis oocytes (cRNA from pGA1)
T1 sequence (P15387 1-857 K360C): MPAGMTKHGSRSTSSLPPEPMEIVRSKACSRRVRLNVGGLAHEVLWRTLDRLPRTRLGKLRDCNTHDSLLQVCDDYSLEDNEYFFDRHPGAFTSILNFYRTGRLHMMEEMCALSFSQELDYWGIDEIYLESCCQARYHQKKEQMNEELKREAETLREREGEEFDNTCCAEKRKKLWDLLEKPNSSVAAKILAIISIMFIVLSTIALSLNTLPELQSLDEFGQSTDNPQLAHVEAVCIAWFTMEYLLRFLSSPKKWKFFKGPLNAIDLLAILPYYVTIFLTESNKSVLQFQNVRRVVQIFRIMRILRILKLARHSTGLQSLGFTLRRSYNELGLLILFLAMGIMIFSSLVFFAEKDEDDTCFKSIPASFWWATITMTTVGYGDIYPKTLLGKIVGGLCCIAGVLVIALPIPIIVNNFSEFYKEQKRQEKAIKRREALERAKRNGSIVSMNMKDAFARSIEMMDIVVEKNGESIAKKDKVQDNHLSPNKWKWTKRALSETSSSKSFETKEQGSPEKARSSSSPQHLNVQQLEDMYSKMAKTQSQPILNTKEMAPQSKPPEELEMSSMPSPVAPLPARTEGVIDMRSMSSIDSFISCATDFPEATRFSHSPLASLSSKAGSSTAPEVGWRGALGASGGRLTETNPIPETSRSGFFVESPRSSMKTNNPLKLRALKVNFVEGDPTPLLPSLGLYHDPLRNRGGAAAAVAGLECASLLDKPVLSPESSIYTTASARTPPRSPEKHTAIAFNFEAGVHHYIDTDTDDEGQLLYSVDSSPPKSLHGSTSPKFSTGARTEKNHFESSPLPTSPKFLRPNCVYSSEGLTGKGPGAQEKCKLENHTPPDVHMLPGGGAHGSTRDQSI
Text: Kv2.1 mutants were constructed using the QuickChange Multi Site-Directed Mutagenesis Kit (Stratagene, La Jolla, Calif.). Mutant Kv2.1 genes (in the pGA1 oocyte expression vector for oocyte expression) were sequenced in their entirety to confirm appropriate mutations and check for inadvertent mutations, and then subcloned into a wild-type pGA1 backbone. For oocyte expression, Kv3.4 was in pBF1, Kv4.2 was in pRAT. cRNA transcripts were produced from SacII-linearized (Kv2.1), Mlullinearized (Kv3.4) and Not1-linearized (Kv4.2) DNA templates using the T3 (Kv2.1), SP6 (Kv3.4) and T7 (Kv4.2) mMessage mMachine kits (Ambion, Austin, Tex.). cRNA was quantified by spectrophotometry and its size integrity verified by gel electophoresis. Defolliculated stage V and VI Xenopus laevis oocytes (purchased from Nasco, Grand Island, N.Y.) were injected with 5 ng of cRNA encoding Kv2.1, Kv3.4 or Kv4.2. Chinese Hamster Ovary (CHO) cells were transfected with 0.25 μg Kv2.1 cDNA, 2 μg blank plasmid and 2 μg Green fluorescent Protein in pBOB using Supetfect transfection reagent (Qiagen) 24 hours before whole-cell voltage clamp studies.
Whole-cell two-electrode voltage-clamp (TEVC) recordings were performed on X laevis oocytes expressing cloned Kv2.1, Kv3.4 or Kv4.2 using a Warner OC-725C amplifier and pClamp9 (Axon Instruments, Foster City, Calif.) software. Oocytes were bathed in a small-volume Warner oocyte bath and viewed with a Fisher dissection microscope. Bath solution for whole-cell oocyte recordings was (in mM): 96 NaCl, 4 KCl, 0.7 MgCl2, 1 CaCl2, 10 HEPES (pH 7.4); whole-cell oocyte TEVC pipettes were of 0.2-2 M resistance when filled with 3 M KCl. Experiments were performed 24-48 hours after cRNA injection. For assessment of current-voltage relationships in the absence or presence of dabco derivatives, oocytes were held at −80 mV, stepped for 2 seconds at voltages between −80 mV and +60 mV in 20 mV steps (Kv2.1) or between −80 and +50 mV in 10 mV steps (Kv3.4), then held for 500 ms at −40 mV before returning to the holding potential. For assessment of block during wash-in of dabco derivatives at a single voltage, oocytes were held at −80 mV, and repetitively stepped to 0 mV for 2 s with an interpulse interval of 10 s or 60 s as indicated. A range of concentrations of dabco or dabco derivatives were washed in via the bath solution during repetitive single-voltage pulses (after an initial period of 5 pulses with control solution to ensure current stabilization) until equilibrium block was achieved, to establish dose-responses. Inhibited currents are compared to the current at the end of 5-pulse control period, thus some bar graphs show ‘control’ current values slightly less than 1, and with an error bar, to show how much currents deviate in the absence of drug. Washout was performed after the highest concentration of blocker was washed in. In cases where washout was achieved, only those recordings in which current returned to within 10% of original current level were used for construction of dose-response curves. For cysteine protection experiments using the K356C variant of Kv2.1, a dabco derivative (JC638.2a) was washed in to equilibrium block, followed by wash-in of a solution containing both JC638.2a and MTSET until no further changes in current were seen; following this the solution was washed out with standard bath solution. As controls for this protection analysis, JC638.2a or MTSET were washed in alone until equilibrium block, then washed out.

[2] = system: oocytes; test: Toxicity / nonspecific leak in oocytes during dose-response recording; format: cell-based, Xenopus laevis
Experimental: Whole-cell two-electrode voltage-clamp (TEVC) recordings were performed on X laevis oocytes expressing cloned Kv2.1, Kv3.4 or Kv4.2 using a Warner OC-725C amplifier and pClamp9 (Axon Instruments, Foster City, Calif.) software. Oocytes were bathed in a small-volume Warner oocyte bath and viewed with a Fisher dissection microscope. Bath solution for whole-cell oocyte recordings was (in mM): 96 NaCl, 4 KCl, 0.7 MgCl2, 1 CaCl2, 10 HEPES (pH 7.4); whole-cell oocyte TEVC pipettes were of 0.2-2 M resistance when filled with 3 M KCl. Experiments were performed 24-48 hours after cRNA injection. For assessment of current-voltage relationships in the absence or presence of dabco derivatives, oocytes were held at −80 mV, stepped for 2 seconds at voltages between −80 mV and +60 mV in 20 mV steps (Kv2.1) or between −80 and +50 mV in 10 mV steps (Kv3.4), then held for 500 ms at −40 mV before returning to the holding potential. For assessment of block during wash-in of dabco derivatives at a single voltage, oocytes were held at −80 mV, and repetitively stepped to 0 mV for 2 s with an interpulse interval of 10 s or 60 s as indicated. […]

[3] = K356C-Kv2.1, JC638.2α plus MTSET

## c1cc(C[N+]23CCN(CC2)CC3)ccc1C[N+]12CCN(CC1)CC2 [JC638.2α, α,α′-[bis(4-aza-1-azoniabicyclo[2.2.2]octanyl)]p-xylene]
[1]; K356C mutant
  current inhibition, administered alone: 62±3%
[1]; K356C mutant, administered alone
  reversibility of block with washout: reversed with washout
[1]; [3]
  current inhibition, co-application with MTSET after pre-application: 84±1%
  reversibility with washout, co-application with MTSET: completely reversible with washout

## C(CC[N+]12CCN(CC1)CC2)C[N+]12CCN(CC1)CC2 [TG26]
[2]; doses required to produce >50% block
  toxicity to oocytes: toxic to the oocytes

## C(CCCC[N+]12CCN(CC1)CC2)CCC[N+]12CCN(CC1)CC2 [TG27, 1,8-[bis(4-aza-1-azoniabicyclo[2.2.2]octanyl)]octane]
[2]; Kv3.4 dose response
  concentration at which nonspecific leak began: above 1 mM

— patent US8143254B2, “Methods for modulating ion channels” (Cornell Research Foundation, Inc., priority 2005, dated 2012)
